This note sets out measurements from the PolyMetriX glass transition set.

In turn, `*C(=O)OC1CC2CC(OC(=O)N3CCN(*)CC3)CC(C1)O2` (repeat unit) had a glass transition temperature of 113.00 °C.

Turning to `*CC(COC(=O)O*)OCCCCCCCCCCCOc1ccc(/C=C/c2ccc([N+](=O)[O-])cc2)cc1` (repeat unit), the glass transition temperature is 21.00 °C.

In turn, `*CC(COC(=O)O*)OCCCCOc1ccc(/C=C/c2ccc([N+](=O)[O-])cc2)cc1` (repeat unit) returned a glass transition temperature of 42.00 °C.

`*CC(F)(F)C(F)(F)C(F)(F)COC(=O)c1cccc(C(=O)O*)c1` (repeat unit) came in with a glass transition temperature of 23.50 °C.

The molecule `*CC(O)COC(=O)C1CCC(C(=O)OCC(O)COc2ccc(C3(c4ccc(O*)cc4)c4ccccc4-c4ccccc43)cc2)CC1` (repeat unit) displayed a glass transition temperature of 110.00 °C.

The molecule `*CC1CCC(COC(=O)O*)CC1` (repeat unit) returned a glass transition temperature of 38.70 °C.

Molecule `*CC1CCCC(COC(=O)c2ccc(C(=O)O*)cc2)C1` (repeat unit) gave a glass transition temperature of 75.00 °C.

For `*CCCCCCCCCCCCOc1ccc(/C=N/N=C/c2ccc(O*)cc2O)c(O)c1` (repeat unit), the glass transition temperature is 89.00 °C.

`*CCCCCCCCCCCOC(=O)c1ccc(-c2ccc(C(=O)O*)cc2)cc1` (repeat unit) yielded a glass transition temperature of 49.00 °C.

For `*CCCCCCCCCCOC(=O)c1ccc(-c2ccc(-c3ccc(C(=O)O*)cc3)cc2)cc1` (repeat unit), the glass transition temperature worked out at 50.00 °C.

The molecule `*CCCCCCCCCCOC(=O)c1ccccc1C(=O)O*` (repeat unit) returned a glass transition temperature of -14.00 °C.

`*CCCCCCCCCCOc1ccc(/C=C/c2ccc(OCCCCCCCCCCOP(=O)(O*)OCCCCCCCCCCOc3ccc(/N=N/c4ccc(-c5ccccc5)cc4)cc3)cc2)cc1` (repeat unit): the glass transition temperature amounted to 50.00 °C.

`*CCCCCCCCCCOc1ccc(/C=C/c2ccc(OCCCCCCCCCCOP(=O)(O*)OCCCCCCCCCCOc3ccc(/N=N/c4ccc(C#N)cc4)cc3)cc2)cc1` (repeat unit) came in with a glass transition temperature of 60.00 °C.

Molecule `*CCCCCCCCCCOc1ccc(/C=C/c2ccc(OCCCCCCCCCCOP(=O)(O*)OCCCCCCCCCCOc3ccc(/N=N/c4ccc([N+](=O)[O-])cc4)cc3)cc2)cc1` (repeat unit) had a glass transition temperature of 50.00 °C.

Turning to `*CCCCCCCCCCOc1ccc(/C=C/c2ccc(OCCCCCCCCCCOP(=O)(O*)OCCCCCCCCCCOc3ccc(/N=N/c4ccccc4)cc3)cc2)cc1` (repeat unit), the glass transition temperature was determined as 55.00 °C.

In turn, `*CCCCCCCCCOc1ccc(CCc2ccc(O*)cc2C)cc1` (repeat unit) yielded a glass transition temperature of -1.10 °C.

Molecule `*CCCCCCOc1ccc(C(=O)N(C(=O)c2ccc(O*)cc2)c2cc(C)cc(C)c2)cc1` (repeat unit) registered a glass transition temperature of 75.00 °C.

In the case of `*OC(=O)C1CCC(C(=O)OC2COC3C(*)COC23)CC1` (repeat unit), the glass transition temperature is 121.00 °C.

Molecule `*OC(=O)OCC(O)C(O)COC(=O)OC1COC2C(*)COC12` (repeat unit) displayed a glass transition temperature of 78.50 °C.

As for `*OC(=O)c1ccc(C(=O)OC2CC3CC(*)CC(C2)O3)cc1` (repeat unit), the glass transition temperature was determined as 207.00 °C.

Turning to `*OC(=O)c1ccc(C(=O)OC2COC3C(*)COC23)cc1` (repeat unit), the glass transition temperature was found to be 255.50 °C.

`*OC(=O)c1ccc(C(=O)OC2COC3C(*)COC23)o1` (repeat unit): the glass transition temperature is 192.50 °C.

In turn, `*OC(=O)c1cccc(OCCCCCCCCCCOc2cccc(C(=O)OC3COC4C(*)COC34)c2)c1` (repeat unit) yielded a glass transition temperature of 30.00 °C.

Turning to `*OC(=O)c1cccc(OCCCCCCCCOc2cccc(C(=O)OC3COC4C(*)COC34)c2)c1` (repeat unit), the glass transition temperature is 33.00 °C.

Molecule `*OC(=O)c1cccc(OCCCCCCOc2cccc(C(=O)OC3COC4C(*)COC34)c2)c1` (repeat unit) gave a glass transition temperature of 43.50 °C.

With `*OC(F)(F)COC(=O)c1cccc(C(F)(F)C(F)(F)C(F)(F)c2cccc(C(=O)OCC(*)(F)F)c2)c1` (repeat unit), the glass transition temperature was 30.00 °C.

Molecule `*OC1C(COC(=O)Nc2ccccc2)OC(*)C(OC(=O)Nc2ccccc2)C1OC(=O)Nc1ccccc1` (repeat unit) came in with a glass transition temperature of 217.00 °C.

With `*OC1C(COC(C)=O)OC(*)C(OC(C)=O)C1OC(C)=O` (repeat unit), the glass transition temperature amounted to 178.00 °C.

In turn, `*OC1CCC(OC(*)=O)CC1` (repeat unit) registered a glass transition temperature of 138.00 °C.

In turn, `*OC1CCC(OC(=O)C(*)=O)CC1` (repeat unit) showed a glass transition temperature of 139.60 °C.

The molecule `*OC1CCC(OC(=O)c2ccc(C(*)=O)cc2)CC1` (repeat unit) yielded a glass transition temperature of 94.30 °C.

`*OC1CCCCC1*` (repeat unit): the glass transition temperature amounted to 68.50 °C.

As for `*OC1CCCCC1OC(*)=O` (repeat unit), the glass transition temperature was found to be 117.30 °C.

For `*OCC(F)(F)C(F)(F)C(F)(F)COc1nc(F)nc(*)c1F` (repeat unit), the glass transition temperature worked out at 0.00 °C.

The molecule `*c1ccc(C(=O)OCCCCCCCCCCOC(=O)c2ccc(-c3nnc(*)s3)cc2)cc1` (repeat unit) displayed a glass transition temperature of 79.00 °C.

`*c1ccc(C(=O)OCCCCCCCCCCOc2ccc(/C=C3\CCCC/C(=C\c4ccc(OCCCCCCCCCCOC(=O)c5ccc(-c6nnc(*)o6)cc5)cc4)C3=O)cc2)cc1` (repeat unit) displayed a glass transition temperature of 74.00 °C.

Regarding `*c1ccc(C(=O)OCCCCCCCCCOC(=O)c2ccc(-c3nnc(*)s3)cc2)cc1` (repeat unit), the glass transition temperature was 72.00 °C.

As to `*c1ccc(OCCCCCCCCCCCOC(=O)c2ccc(C(=O)OCCCCCCCCCCCOc3ccc(-c4nnc(*)s4)cc3)cc2)cc1` (repeat unit), the glass transition temperature turned out to be 64.00 °C.

With `*c1ccc(OCCCCCCCCCCCOC(=O)c2ccc(C(=O)OCCCCCCCCCCCOc3cccc(-c4nnc(*)s4)c3)cc2)cc1` (repeat unit), the glass transition temperature worked out at 35.00 °C.

Turning to `*c1ccc(Oc2ccc(-c3cccc4c3C(=O)N(Oc3ccc(C(=O)c5ccc(Oc6cccc7c6C(=O)N(*)C7=O)cc5)cc3)C4=O)cc2)cc1` (repeat unit), the glass transition temperature was 252.00 °C.

Regarding `*c1ccc(Oc2ccc(C(=O)c3ccc(Oc4ccc(-c5c6c(c(*)c7ccccc57)C(=O)N(c5ccc(C(F)(F)F)cc5)C6=O)cc4)cc3)cc2)cc1` (repeat unit), the glass transition temperature is 260.00 °C.

Take `*c1ccc(Oc2ccc(C(=O)c3ccc(Oc4ccc(-c5c6c(c(*)c7ccccc57)C(=O)N(c5ccc(Cl)cc5)C6=O)cc4)cc3)cc2)cc1` (repeat unit): the glass transition temperature stood at 272.00 °C.

On to `*c1ccc(Oc2ccc(C(=O)c3ccc(Oc4ccc(-c5c6c(c(*)c7ccccc57)C(=O)N(c5ccccc5-c5ccccc5)C6=O)cc4)cc3)cc2)cc1` (repeat unit), for which the glass transition temperature worked out at 245.00 °C.

The molecule `*c1ccc(Oc2ccc(C(=O)c3ccc(Oc4ccc(-c5c6c(c(*)c7ccccc57)C(=O)N(c5ccccc5C(F)(F)F)C6=O)cc4)cc3)cc2)cc1` (repeat unit) displayed a glass transition temperature of 260.00 °C.

The molecule `*c1cccc(OCCCCCCCCCCCOC(=O)c2ccc(C(=O)OCCCCCCCCCCCOc3cccc(-c4nnc(*)s4)c3)cc2)c1` (repeat unit) had a glass transition temperature of 22.00 °C.
